This is an account of results in patent US20130190407A1, “CALCIUM RECEPTOR-ACTIVE MOLECULES” (NPS Pharmaceuticals, Inc., priority 1991, published 2013).

Assay [1] concerns the target T1, parathyroid cell calcium receptor (Bos taurus, UniProt P35384).
T1 sequence (P35384 20-1085): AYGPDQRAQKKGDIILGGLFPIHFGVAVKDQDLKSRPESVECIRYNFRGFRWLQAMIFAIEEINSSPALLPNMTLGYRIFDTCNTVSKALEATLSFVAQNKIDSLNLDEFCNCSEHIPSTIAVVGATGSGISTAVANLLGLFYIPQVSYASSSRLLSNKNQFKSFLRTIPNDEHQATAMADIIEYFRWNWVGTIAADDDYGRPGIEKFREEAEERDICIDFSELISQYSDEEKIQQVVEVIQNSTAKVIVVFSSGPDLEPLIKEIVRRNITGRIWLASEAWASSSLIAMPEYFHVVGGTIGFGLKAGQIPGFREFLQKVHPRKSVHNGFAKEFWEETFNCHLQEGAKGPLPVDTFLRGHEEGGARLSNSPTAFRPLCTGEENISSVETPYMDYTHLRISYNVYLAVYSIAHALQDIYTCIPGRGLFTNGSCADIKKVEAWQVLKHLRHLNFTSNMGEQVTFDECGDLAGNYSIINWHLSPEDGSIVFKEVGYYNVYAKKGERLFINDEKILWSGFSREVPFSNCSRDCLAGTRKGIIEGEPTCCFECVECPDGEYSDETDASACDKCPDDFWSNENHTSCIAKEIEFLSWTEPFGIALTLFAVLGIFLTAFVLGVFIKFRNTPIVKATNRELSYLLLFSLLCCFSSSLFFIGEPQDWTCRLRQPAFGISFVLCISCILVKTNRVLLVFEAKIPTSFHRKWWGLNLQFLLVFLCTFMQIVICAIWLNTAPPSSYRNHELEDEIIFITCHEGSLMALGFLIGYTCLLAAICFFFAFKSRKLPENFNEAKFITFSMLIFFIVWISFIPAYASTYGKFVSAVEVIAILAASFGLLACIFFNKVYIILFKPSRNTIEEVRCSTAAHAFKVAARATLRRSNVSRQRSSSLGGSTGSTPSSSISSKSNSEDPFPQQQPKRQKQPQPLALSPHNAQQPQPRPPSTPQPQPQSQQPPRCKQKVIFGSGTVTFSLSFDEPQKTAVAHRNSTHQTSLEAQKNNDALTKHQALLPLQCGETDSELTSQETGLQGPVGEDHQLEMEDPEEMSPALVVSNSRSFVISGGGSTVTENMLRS
Description: Mobilization of intracellular Ca2+ ([Ca2+]i, fura-2) in bovine parathyroid cells. The following applies: EC50 for mobilization of intracellular Ca2+; bovine parathyroid cells. Also on record: Parathyroid glands were obtained from freshly slaughtered calves (12-15 weeks old); endogenous in cells; host or cells: dissociated primary bovine (calf) parathyroid cells. The assay is classed as cell-based.
Description: This section describes procedures used to obtain and treat parathyroid cells from calves and humans. […] Human parathyroid glands, were obtained from patients undergoing surgical removal of parathyroid tissue for primary or uremic hyperparathyroidism (uremic HPT), and were treated similarly to bovine tissue.
Glands were trimmed of excess fat and connective tissue and then minced with fine scissors into cubes approximately 2-3 mm on a side. Dissociated parathyroid cells were prepared by collagenase digestion and then purified by centrifugation in Percoll buffer. The resultant parathyroid cell preparation was essentially devoid of red blood cells, adipocytes, and capillary tissue as assessed by phase contrast microscopy and Sudan black B staining. Dissociated and purified parathyroid cells were present as small clusters containing 5 to 20 cells.
The cells were then pelleted, resuspended in the same buffer, but lacking the ester, and incubated a further 15 minutes at 37° C. The cells were subsequently washed twice with PCB containing 0.5 mM CaCl2 and 0.5% BSA and maintained at room temperature (about 20° C.) Immediately before use, the cells were diluted five-fold with prewarmed 0.5 mM CaCl2-PCB to obtain a final BSA concentration of 0.1%. The concentration of cells in the cuvette used for fluorescence recording was 1−2×10^6/ml.
The fluorescence of indicator-loaded cells was measured at 37° C. in a spectrofluorimeter (Biomedical Instrumentation Group, University of Pennsylvania, Philadelphia, Pa.) equipped with a thermostated cuvette holder and magnetic stirrer using excitation and emission wavelengths of 340 and 510 nm, respectively. […] Leakage of dye is dependent on temperature and most occurs within the first 2 minutes after warming the cells in the cuvette. Dye leakage increases only very slowly thereafter. To correct the calibration for dye leakage, cells were placed in the cuvette and stirred at 37° C. for 2-3 minutes. The cell suspension was then removed, the cells pelleted, and the supernatant returned to a clean cuvette. […] This estimate was subtracted from the apparent Fmin.

A further assay relates to Sprague-Dawley rats. Briefly: Serum/plasma Ca2+, PTH and calcitonin in rats in vivo. Also on record: species or system rat. The following applies: for ED50: Rattus norvegicus, po, normal adult rats. As for the experimental part: Compounds shown to activate the bovine parathyroid cell calcium receptor in vitro were tested for hypocalcemic activity in vivo. Male Sprague-Dawley rats (200 g) were maintained on a low calcium diet for one week prior to receiving test substance or vehicle as control. Blood was collected from the tail vein three hours after the intra-peritoneal administration of NPS 467. […] Serum total calcium, albumin and phosphate were measured by techniques well known in the art.
Rats (male, Sprague-Dawley, 250-300 g) were fed standard rat chow and fasted overnight prior to the experiment. NPS R-467 was suspended in corn oil, and administered as a single oral dose through a gavage needle. Three hours later a sample of blood was taken from the tail vein and assessed for ionized Ca^2+ levels.

Assay [2] deals with parathyroidectomized rats. Briefly: Serum ionized Ca2+ in parathyroidectomized animals. The assay is classed as in vivo, rat. The source says:
To determine the primary target tissue upon which NPS R-467 acts to cause a hypocalcemic response, the parathyroid glands in rats were surgically removed. Animals receiving a total parathyroidectomy become hypocalcemic and are largely dependent upon dietary calcium to maintain serum Ca^2+ homeostasis.

The target in assay [3] is T2, bovine parathyroid cell calcium receptor (Bos taurus, UniProt P35384).
T2 construct: isolation of a single clone (BoPCaR 1) with a cDNA insert of 5.3 kb; expressed in transfected cells
T2 sequence (P35384 20-1085): T1 sequence (P35384 20-1085)
Briefly: Cl- current in Xenopus oocytes injected with BoPCaR 1. The assay is classed as cell-based. As for the experimental part:
Several pharmacological and biochemical criteria were used to identify this clone as encoding a bona fide bovine parathyroid Ca^2+ receptor. […] These responses increased markedly over a period of one to four days after injection of the eggs with cRNA prepared from the BoPCaR 1 cDNA. Furthermore, the ranges of the concentrations of the two cations eliciting this response were very similar to those shown previously to act on bovine parathyroid cells in vitro.
Xenopus oocytes were injected with BoPCaR 1, the 5.3 Kb cDNA encoding a bovine parathyroid cell calcium receptor as described in Example 25. After two to three days, Cl^− currents were examined in the oocytes using a two-electrode voltage clamp.
Xenopus oocytes were injected with BoPCaR 1 as described in Example 25. After two to three days, Cl^− currents were examined in the oocytes using two electrode voltage clamp.

pEC50: −log10 of the molar value. Read-outs that look alike come from different tables or passages of the source.

As for `COc1cccc([C@@H](C)NCCCc2ccccc2)c1` (single isomer, unassigned) [NPS R-467], in assay [1], the pEC50 was above 5.30. Besides, the “potency in lowering serum Ca2+ in vivo” value in the assay with Sprague-Dawley rats (5 mg/kg body weight) was “more potent than the S-isomer in lowering serum Ca^2+ in vivo”. Besides, in the assay on Sprague-Dawley rats (single oral dose in corn oil, three hours), the “serum ionized Ca2+” value is “dose-dependent reduction in serum levels of ionized Ca^2+”. The “change in serum ionized Ca2+” value in assay [2] (10 mg/kg i.p., over 6 hours) is on record as “did not cause any change in serum ionized Ca^2+ levels”.
As for `COc1cccc([C@@H](C)NCCCc2ccccc2Cl)c1` [NPS R-568, (R)-(+)-N-[3-(2-chlorophenyl)propyl]-α-methyl-3-methoxybenzylamine], the pEC50 was above 5.30 in assay [1] and around 5.52 in assay [3] (0.3 or 1 mM extracellular Ca2+, read-out: EC50 for increases in Cl- current). Also, the ED50 turned out to be 8 mg/kg in the assay with Sprague-Dawley rats (read-out: ED50 for depression of plasma Ca2+), 1 mg/kg in the assay on Sprague-Dawley rats (read-out: ED50 for depression of plasma PTH) and 40 mg/kg in the assay on Sprague-Dawley rats (read-out: ED50 for stimulation of calcitonin). In addition, the hypocalcemic response entry in assay [2] (oral administration) is “fails to elicit a hypocalcemic response”.
For the compound `NC[C@@H]1O[C@H](O[C@H]2[C@@H](O)[C@H](O[C@@H]3[C@@H](O)[C@H](N)C[C@H](N)[C@H]3O[C@H]3O[C@H](CN)[C@@H](O)[C@H](O)[C@H]3N)O[C@@H]2CO)[C@H](N)[C@@H](O)[C@@H]1O` [Neomycin B, neomycin B], the “concentrations producing changes in Cl- current” value in assay [3] was in the range of 20 to 100 µM.
